Assay results published in patent US11253516B2, “N2,N4-diphenylpyrimidine-2,4-diamine derivative, method for preparing same, and pharmaceutical composition containing same as active ingredient for prevention or treatment of cancer” (Korea Research Institute of Chemical Technology, priority 2017, dated 2022).
Where two headings read alike, the source gives them in different places.

Tests used:
EGFR del19/T790M = EGFR del19/T790M (Homo sapiens (Human), UniProt P00533, DEL746-750/T790M); assay: HTRF enzyme assay, EGFR del19/T790M; assay type: biochemical; settings: recombinant enzyme
Method: (§1) The measurement of an activity on wild-type and EGFR mutation enzyme of the compound of the present invention was experimented by utilizing the HTRF system sold by Cisbio, as follow.
(§2) The composition of the assay buffer used in the activity measurement was 50 mM Tris-HCl pH 7.5, 100 mM NaCl, 7.5 mM MgCl2, 3 mM KCl, 0.01% Tween 20, 0.1% BSA, 1 mM DTT. The enzymatic reaction was carried out hereto by using the peptide substrate labeled with ATP of […] concentration and biotin of […] concentration. The analysis of an EGFR activity inhibitory effect of the compound was carried out in accordance with the analysis reaction recipe below.
(§3) Component 1: […] of EGFR wild-type or mutation enzyme
(§4) Component 2: […] of compound solution
(§5) Component 3: […] of peptide labeled with ATP and biotin
(§6) The enzymatic reaction was initiated by mixing Component 1 and Component 2 first, and then, adding component 3. After the reaction for 2 hours at 37° C., […] of a measurement solution consisting of streptavidin-XL665 provided by Cisbio and anti-phosphotyrosine antibody labeled with europium was added to the enzymatic reaction solution and reacted for 1 hour at ambient temperature. […] The measurement values measured at the seven concentrations of the compound were analyzed by using the Prism program (version 5.01, Graphpad Software, Inc.), and IC50 value of the compound was calculated, which is an inhibitory ability indicator.

[1] = test system: Ba/F3 Del19/T790M/C797S cell line; assay: Relative cell viability alone or in combination with cetuximab; assay type: cell-based; settings: for viability at 0.03 µM: Mus musculus; for cell viability decreased than brigatinib in combination with cetuximab: combination with 10 μg cetuximab vs 30 nM brigatinib plus cetuximab
Text: In order to confirm a cell activity on Ba/F3 Del19/T790M/C797S cell line when administering the compound according to the present invention in combination with a conventional drug, cetuximab to be used in single therapy or combination therapy with anticancer chemotherapy in metastatic colorectal cancer, metastatic squamous epithelium head and neck cancer and the like was used to evaluate the cell activity according to the combination administration.
Specifically, brigatinib was used as a control drug, and each of 30 nM of brigatinib, 30 nM of the compound of Example 10 according to the present invention, and 15 nM of the compound of Example 11 was administered to Ba/F3 Del19/T790M/C797S cell line in combination with 10 μg of cetuximab, which is a monoclonal antibody.

FLT3(D835H) = FLT3(D835H) (Homo sapiens (Human), UniProt P36888, D835H); assay: KINOMEscan binding, FLT3(D835H)
Method: (§7) The inhibitory activity on FLT kinase, such as wild-type FLT1, FLT3, FLT4, and FLT3 mutation forms, FLT3(D835H), FLT3(D835V), FLT3(D835Y), FLT3(ITD), FLT3(ITD,D835V), FLT3(ITD,F691L), FLT3(K663Q), FLT3(N841I), FLT3(R834Q) was measured.
(§8) FLT3 kinase inhibition was carried out by KINOMEscan method (DiscoverX Inc.). KINOMEscan method consists of the following processes. T7 bacteriophage labeled with FLT kinase was cultured by the infection to E. coli derived from BL21. After the infection of E. coli in the condition of 0.4 of MOI (multiplicity of infection), it was cultured for 90 to 150 minutes at 32° C. to lyse E. coli. The cell debris was removed by centrifugation and filtration, and the kinase protein present in the supernatant was secured. Additionally, the kinase protein was labeled with DNA for the qPCR measurement. The magnetic beads labeled with streptavidin were treated with the standard compound labeled with biotin and reacted for 30 minutes. The resulting beads were used as affinity beads for the measurement of a kinase activity. The binding reaction was initiated with mixing a kinase protein, the affinity beads bound with a ligand, and the compound. In this case, the used buffer solution was 20% SeaBlock, 0.17×PBS, 0.05% Tween 20, 6 mM DTT. […] The affinity of the compound to be tested was indirectly measured by Quantifying the eluted kinase by […].

[2] = test system: Ba/F3 EGFR del19 cell line; assay: CellTiter-Glo cell viability, Ba/F3 EGFR del19; assay type: cell-based; settings: 72 hours
Method: The measurement of an activity on wild-type and mutation Ba/F3 EGFR cell line of the compound of the present invention was experimented by utilizing the CellTiter-Glo system sold by Promega, as follow. The CellTiter-Glo assay is a method for measuring the ATP present in cells in cell culture conditions to determine the cell viability.
The analysis of an EGFR inhibitory ability effect of the compound was carried out in accordance with the analysis reaction recipe below.
After the reaction of 72 hours, the plate treated with the compound was allowed to stand for 30 minutes at ambient temperature, and then, was further treated with 100 μl of the reagent, and was shaked for 10 minutes at ambient temperature. […] The measurement values measured at the eight concentrations of the compound were analyzed by using the Prism program (version 5.01, Graphpad Software, Inc.), and IC50 value of the compound was calculated, which is an inhibitory ability indicator.

FLT3 = FLT3 (Homo sapiens (Human), UniProt P36888); assay: KINOMEscan binding, FLT3; settings: for inhibitory ability on FLT 3 kinase in comparison with FLT 1 and FLT 4: selectivity in words
Method: as §7
FLT3 kinase inhibition was carried out by KINOMEscan method (DiscoverX Inc.). KINOMEscan method consists of the following processes. T7 bacteriophage labeled with FLT kinase was cultured by the infection to E. coli derived from BL21. After the infection of E. coli in the condition of 0.4 of MOI (multiplicity of infection), it was cultured for 90 to 150 minutes at 32° C. to lyse E. coli. The cell debris was removed by centrifugation and filtration, and the kinase protein present in the supernatant was secured. Additionally, the kinase protein was labeled with DNA for the qPCR measurement. The magnetic beads labeled with streptavidin were treated with the standard compound labeled with biotin and reacted for 30 minutes. The resulting beads were used as affinity beads for the measurement of a kinase activity. The binding reaction was initiated with mixing a kinase protein, the affinity beads bound with a ligand, and the compound. In this case, the used buffer solution was 20% SeaBlock, 0.17×PBS, 0.05% Tween 20, 6 mM DTT. All the reactions were carried out in volume of 20 ul at a 384 well plate. After the reaction for 1 hour at ambient temperature, the beads were washed with the solution consisting of 1×PBS, 0.05 Tween 20. Finally, the kinase bound with the beads was eluted by using 1×PBS, 0.05 Tween 20, 0.5 uM standard compound unlabeled with biotin. The affinity of the compound to be tested was indirectly measured by Quantifying the eluted kinase by […].

FLT4 = FLT4 (Homo sapiens (Human), UniProt P35916); assay: KINOMEscan binding, FLT4
Method: as §7, §8

FLT1 = FLT1 (Homo sapiens (Human), UniProt P17948); assay: KINOMEscan binding, FLT1
Method: as §7, §8

EGFR wt. = EGFR wt. (Homo sapiens (Human), UniProt P00533); assay: HTRF enzyme assay, wild-type EGFR; assay type: biochemical; settings: recombinant enzyme
Method: as §1, §2, §3, §4, §5, §6

FLT3(R834Q) = FLT3(R834Q) (Homo sapiens (Human), UniProt P36888, R834Q); assay: KINOMEscan binding, FLT3(R834Q)
Method: as §7, §8

[3] = test system: pERK, pAKT, pS6 (EGFR sub-signal) in Ba/F3 Del19/T790M/C797S cell line; assay: EGFR sub-signal activity (pERK, pAKT, pS6) alone or in combination with cetuximab; assay type: cell-based; settings: for activity in pERK, pAKT, pS6 (EGFR sub-signal) when administered alone: 30, 100, 300, 1000 nM alone; for sub-signal activity when administered in combination with cetuximab: 30, 100, 300, 1000 nM plus 10 μg cetuximab; for sub-signal activity compared with brigatinib in combination with cetuximab: vs brigatinib plus cetuximab
Method: In addition, when administering each of brigatinib, the compounds of Examples 10 and 11 of the present invention in 30, 100, 300, 1000 nM alone or in combination with 10 μg of cetuximab, the sub-signal activity on a/F3 Del19/T790M/C797S cell line was evaluated and the results are shown in FIGS. 5 to 7.

[4] = BaF3, 30 nM Example 10 or 15 nM Example 11 alone vs 10 μg cetuximab alone, read-out: lower cell viability when administered alone than cetuximab
[5] = BaF3, 30 nM Example 10 or 15 nM Example 11 plus 10 μg cetuximab vs alone, read-out: cell viability decreased when administered in combination with cetuximab than when administered alone

Sequence of FLT1 (P17948 27-1338): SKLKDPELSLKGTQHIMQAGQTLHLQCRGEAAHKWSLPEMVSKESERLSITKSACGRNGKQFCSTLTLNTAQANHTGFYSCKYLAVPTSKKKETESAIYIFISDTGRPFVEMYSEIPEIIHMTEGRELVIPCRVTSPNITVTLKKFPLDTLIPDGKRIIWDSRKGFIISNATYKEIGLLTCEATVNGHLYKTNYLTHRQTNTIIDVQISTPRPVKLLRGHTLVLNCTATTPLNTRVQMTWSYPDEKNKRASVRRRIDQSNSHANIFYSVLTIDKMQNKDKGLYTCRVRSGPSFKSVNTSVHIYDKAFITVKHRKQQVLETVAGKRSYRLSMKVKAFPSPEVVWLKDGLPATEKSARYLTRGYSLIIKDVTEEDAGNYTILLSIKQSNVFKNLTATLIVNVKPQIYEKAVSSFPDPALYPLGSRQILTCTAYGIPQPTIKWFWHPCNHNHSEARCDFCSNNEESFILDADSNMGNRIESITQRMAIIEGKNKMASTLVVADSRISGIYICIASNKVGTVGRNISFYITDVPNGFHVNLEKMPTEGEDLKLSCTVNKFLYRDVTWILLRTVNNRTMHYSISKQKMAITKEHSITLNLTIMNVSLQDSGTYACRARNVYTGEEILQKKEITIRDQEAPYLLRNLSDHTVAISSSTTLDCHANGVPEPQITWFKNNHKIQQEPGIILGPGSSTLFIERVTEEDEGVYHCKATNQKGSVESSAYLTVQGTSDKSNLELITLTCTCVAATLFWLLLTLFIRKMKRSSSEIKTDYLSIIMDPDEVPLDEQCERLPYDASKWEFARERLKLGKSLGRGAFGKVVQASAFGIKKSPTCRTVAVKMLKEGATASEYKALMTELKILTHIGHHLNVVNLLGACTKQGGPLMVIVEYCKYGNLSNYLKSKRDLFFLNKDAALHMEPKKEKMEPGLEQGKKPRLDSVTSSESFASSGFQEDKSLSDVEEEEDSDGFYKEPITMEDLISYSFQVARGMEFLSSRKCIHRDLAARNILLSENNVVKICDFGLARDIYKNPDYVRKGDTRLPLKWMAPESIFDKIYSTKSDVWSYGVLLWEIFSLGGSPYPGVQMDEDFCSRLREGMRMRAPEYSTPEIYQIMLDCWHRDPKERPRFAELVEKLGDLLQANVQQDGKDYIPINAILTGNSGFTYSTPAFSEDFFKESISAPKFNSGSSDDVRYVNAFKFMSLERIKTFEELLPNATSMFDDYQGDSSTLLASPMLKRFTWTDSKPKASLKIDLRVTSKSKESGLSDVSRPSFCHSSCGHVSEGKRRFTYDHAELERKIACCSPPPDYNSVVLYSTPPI
Sequence of FLT4 (P35916 25-1363): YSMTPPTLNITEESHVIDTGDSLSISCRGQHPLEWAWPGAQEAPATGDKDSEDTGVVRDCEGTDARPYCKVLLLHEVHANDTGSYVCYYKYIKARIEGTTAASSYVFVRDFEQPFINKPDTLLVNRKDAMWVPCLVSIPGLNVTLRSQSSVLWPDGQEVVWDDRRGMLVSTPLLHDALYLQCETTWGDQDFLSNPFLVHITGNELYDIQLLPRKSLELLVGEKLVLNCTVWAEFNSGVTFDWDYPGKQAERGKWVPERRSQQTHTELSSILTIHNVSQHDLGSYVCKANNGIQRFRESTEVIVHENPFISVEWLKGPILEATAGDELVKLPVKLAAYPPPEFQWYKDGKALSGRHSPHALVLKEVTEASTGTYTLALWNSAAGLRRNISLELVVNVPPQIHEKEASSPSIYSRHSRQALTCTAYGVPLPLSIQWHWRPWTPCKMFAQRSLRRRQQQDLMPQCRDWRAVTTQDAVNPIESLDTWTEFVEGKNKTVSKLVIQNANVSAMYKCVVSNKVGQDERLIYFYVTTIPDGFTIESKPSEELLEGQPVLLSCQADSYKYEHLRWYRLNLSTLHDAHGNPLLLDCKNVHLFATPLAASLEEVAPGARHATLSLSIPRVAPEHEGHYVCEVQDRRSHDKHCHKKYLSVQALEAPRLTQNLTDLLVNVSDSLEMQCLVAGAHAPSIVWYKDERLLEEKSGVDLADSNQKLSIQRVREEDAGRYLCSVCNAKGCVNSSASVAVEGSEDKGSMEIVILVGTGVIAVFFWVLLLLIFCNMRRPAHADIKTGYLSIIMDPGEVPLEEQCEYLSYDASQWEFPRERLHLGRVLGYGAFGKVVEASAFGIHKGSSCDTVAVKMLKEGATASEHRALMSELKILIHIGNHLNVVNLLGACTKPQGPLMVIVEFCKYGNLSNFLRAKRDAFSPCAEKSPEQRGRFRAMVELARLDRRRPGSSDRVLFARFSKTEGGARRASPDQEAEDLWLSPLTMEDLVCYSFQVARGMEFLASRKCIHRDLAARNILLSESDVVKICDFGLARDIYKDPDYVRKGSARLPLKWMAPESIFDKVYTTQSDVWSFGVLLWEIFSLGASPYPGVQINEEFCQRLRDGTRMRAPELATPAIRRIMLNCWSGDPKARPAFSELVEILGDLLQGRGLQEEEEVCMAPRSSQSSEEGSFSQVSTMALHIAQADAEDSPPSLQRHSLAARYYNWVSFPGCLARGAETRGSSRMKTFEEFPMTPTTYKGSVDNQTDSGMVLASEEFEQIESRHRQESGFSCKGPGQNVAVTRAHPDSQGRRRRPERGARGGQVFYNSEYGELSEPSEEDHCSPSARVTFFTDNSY
Sequence of EGFR wt. (P00533 25-1210): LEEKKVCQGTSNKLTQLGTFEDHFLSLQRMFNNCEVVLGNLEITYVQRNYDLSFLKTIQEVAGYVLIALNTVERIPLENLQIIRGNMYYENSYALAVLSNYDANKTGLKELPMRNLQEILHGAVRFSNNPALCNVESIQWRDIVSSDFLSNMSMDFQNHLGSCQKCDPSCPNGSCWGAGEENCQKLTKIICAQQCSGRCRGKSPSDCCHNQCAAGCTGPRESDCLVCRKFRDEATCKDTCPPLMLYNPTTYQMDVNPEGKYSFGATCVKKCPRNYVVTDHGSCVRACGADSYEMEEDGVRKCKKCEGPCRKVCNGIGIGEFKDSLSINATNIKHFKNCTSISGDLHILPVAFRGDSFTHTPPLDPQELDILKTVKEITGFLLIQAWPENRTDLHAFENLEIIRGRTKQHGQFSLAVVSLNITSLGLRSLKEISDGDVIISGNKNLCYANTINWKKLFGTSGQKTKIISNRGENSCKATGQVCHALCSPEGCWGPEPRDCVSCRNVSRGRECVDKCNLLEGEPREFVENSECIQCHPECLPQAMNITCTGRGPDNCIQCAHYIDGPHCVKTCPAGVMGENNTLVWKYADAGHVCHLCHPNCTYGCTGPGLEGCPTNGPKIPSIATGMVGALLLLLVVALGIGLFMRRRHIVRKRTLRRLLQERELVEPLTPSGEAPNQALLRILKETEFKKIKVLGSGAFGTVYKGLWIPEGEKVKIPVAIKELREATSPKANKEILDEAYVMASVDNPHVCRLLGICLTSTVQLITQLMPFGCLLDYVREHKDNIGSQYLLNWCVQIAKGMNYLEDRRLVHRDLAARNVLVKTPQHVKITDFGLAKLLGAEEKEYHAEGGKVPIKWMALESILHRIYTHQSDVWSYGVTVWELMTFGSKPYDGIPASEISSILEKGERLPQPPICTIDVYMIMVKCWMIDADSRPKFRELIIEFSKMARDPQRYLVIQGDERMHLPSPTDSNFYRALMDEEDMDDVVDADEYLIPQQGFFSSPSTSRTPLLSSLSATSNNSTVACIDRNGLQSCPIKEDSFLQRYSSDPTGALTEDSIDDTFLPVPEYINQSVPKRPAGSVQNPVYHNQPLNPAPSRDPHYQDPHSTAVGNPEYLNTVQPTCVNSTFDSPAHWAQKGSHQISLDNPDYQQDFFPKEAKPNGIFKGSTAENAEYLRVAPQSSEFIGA
Sequence of EGFR del19/T790M (P00533 other isoform, or with tags, fused parts or gaps T790M/del 1-668/del 746-750 limits assumed): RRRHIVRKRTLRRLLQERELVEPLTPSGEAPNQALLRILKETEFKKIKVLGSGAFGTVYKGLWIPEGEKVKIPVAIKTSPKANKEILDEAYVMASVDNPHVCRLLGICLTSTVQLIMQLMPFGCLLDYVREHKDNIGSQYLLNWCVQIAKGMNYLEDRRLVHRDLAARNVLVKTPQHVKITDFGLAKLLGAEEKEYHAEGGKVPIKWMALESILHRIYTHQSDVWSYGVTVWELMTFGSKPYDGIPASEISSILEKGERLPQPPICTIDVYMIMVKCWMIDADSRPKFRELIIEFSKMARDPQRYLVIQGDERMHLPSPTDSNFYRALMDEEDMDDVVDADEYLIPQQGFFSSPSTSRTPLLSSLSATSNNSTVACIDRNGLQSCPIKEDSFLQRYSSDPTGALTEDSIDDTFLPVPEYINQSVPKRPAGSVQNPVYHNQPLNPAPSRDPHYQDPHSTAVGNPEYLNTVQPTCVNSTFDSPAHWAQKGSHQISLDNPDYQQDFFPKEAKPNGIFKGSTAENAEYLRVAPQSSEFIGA

Structure (SMILES) | IC50 (EGFR del19/T790M) [nM] | viability at 0.03 µM [1, 4] [%] | viability at 0.03 µM [1, 5] [%] | cell viability decreased than brigatinib in combination with cetuximab [1] | Kd (FLT3(D835H)) [nM] | IC50 [2] [nM] | Kd (FLT3) [nM] | inhibitory ability on FLT 3 kinase in comparison with FLT 1 and FLT 4 (FLT3) | Kd (FLT4) [nM] | Kd (FLT1) [nM] | IC50 (EGFR wt.) [nM] | Kd (FLT3(R834Q)) [nM] | activity in pERK, pAKT, pS6 (EGFR sub-signal) when administered alone [3] | sub-signal activity when administered in combination with cetuximab [3] | sub-signal activity compared with brigatinib in combination with cetuximab [3]
COc1cc(N2CCC(N3CCN(C)CC3)CC2)ccc1Nc1ncc(Cl)c(Nc2ccccc2NS(C)(=O)=O)n1 [Example 10, N-(2-((5-chloro-2-((2-methoxy-4-(4-(4-methylpiperazin-1-yl)piperidin-1-yl)phenyl)amino)pyrimidin-4-yl)amino)phenyl)methanesulfonamide] | 4 | ≥ 30 | ≥ 50 | at least 20% | 38 | 180 | 3.7 | selectively superior inhibitory ability | 200 | > 10000 | 430 | 33 | concentration-dependent activity | superior activity | superior activity
COc1cc(N2CCC(N(C)C)CC2)ccc1Nc1ncc(Cl)c(Nc2ccccc2NS(C)(=O)=O)n1 [Example 11, N-(2-((5-chloro-2-((4-(4-(dimethylamino)piperidin-1-yl)-2-methoxyphenyl)amino)pyrimidin-4-yl)amino)phenyl)methanesulfonamide] | 3.1 | ≥ 30 | ≥ 50 | at least 20% | 1.8 | 4.7 | 1.2 | selectively superior inhibitory ability | 81 | 910 | 280 | 19 | concentration-dependent activity | superior activity | superior activity
